Drawing on patent publication US12173018B2, “Penicillin-binding protein inhibitors” (priority 2018, dated 2024), this text covers MIC for 5 compounds.

Values after ≈ are worked out from the molar mass of the structure shown. Like-named read-outs stand apart in the source and are kept apart here.

What all share (type): cell-based
For assay [1], the system named is E. coli AG100. Description: Broth microdilution MIC, E. coli AG100 (wild-type parent). The note with it: Escherichia coli. The method in brief:
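Broth microdilution in cation-supplemented Mueller-Hinton broth, 2-fold serial compound dilutions, inoculum 5×10^5 CFU/mL from 3-5 h log culture.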

The test system of assay [2] is E. coli 901C. Description: microbe, parasite or virus in culture. The note with it: Escherichia coli, read-out: MIC E. coli 901C. The method in brief: (§1)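 Colonies from Mueller Hinton II agar were grown 3-5 hours at 37° C in cation-supplemented broth, adjusted by OD600, then added to 2-fold compound dilutions at 5×10^5 CFU/mL. After 16-20 hours at 37° C, MICs were scored visually.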

The subject of assay [3] is E. coli AG100A. The experiment in a line: microbe, parasite or virus in culture. The note with it: Escherichia coli, read-out: MIC E. coli AG100A. The method in brief:
as §1

For assay [4], the system named is E. coli D22. Description: microbe, parasite or virus in culture. The note with it: Escherichia coli. A digest of the protocol:
as §1

Assay [5] deals with K. pneumoniae SI-117. The experiment in a line: microbe, parasite or virus in culture. The note with it: Klebsiella pneumoniae, SI117, read-out: MIC K. pneumoniae SI-117. A digest of the protocol: as §1
Assay [6] relates to K. pneumoniae UMM. The experiment in a line: microbe, parasite or virus in culture. The note with it: Klebsiella pneumoniae, read-out: MIC K. pneumoniae UMM. A digest of the protocol:
as §1

The test system of assay [7] is N. gonorrhoeae ATCC 49226. The experiment in a line: Liquid broth MIC, N. gonorrhoeae ATCC 49226. The note with it: Neisseria gonorrhoeae, ATCC49226; N. gonorrhoeae ATCC 49226, liquid broth; read-out: Minimum Inhibitory Concentration, N. gonorrhoeae ATCC 49226. A digest of the protocol:
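Broth microdilution, 2-fold compound series; start inoculum 5×10^5 CFU/mL (OD600-adjusted, GC broth pH 7.2, Kellogg's suppl.). 40-42 h, 36° C, 5% CO2. MIC = lowest conc., no visible growth.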

[8] abbreviates: wild-type parent E. coli AG100, broth microdilution, read-out: MIC E. coli AG100.
[9] abbreviates: hyper-permeable E. coli 901C, broth microdilution.
The mark [10] stands for this setting: hyper-permeable E. coli D22, broth microdilution, read-out: MIC E. coli D22.
Setting [11] is: K. pneumoniae UMM producing SHV-5 and KPC-2.

As for `CCN1CCN(C(=O)NC(C(=O)N[C@H]2Cc3cccc(C(=O)O)c3OB2O)c2csc(N)n2)C(=O)C1=O` (stereo partly drawn) [Example 5, (3R)-3-(2-(2-aminothiazol-4-yl)-2-(4-ethyl-2,3-dioxopiperazine-1-carboxamido)acetamido)-2-hydroxy-3,4-dihydro-2H-benzo[e][1,2]oxaborinine-8-carboxylic acid], the MIC in assay [1] (setting [8]) is 8 to 16 µg/mL; in assay [2] (setting [9]), less than 0.25 µg/mL; in assay [3], 2 to 4 µg/mL; in assay [4] (setting [10]) it was 2 to 4 µg/mL; in assay [5] it was 8 to 16 µg/mL; in assay [6] (setting [11]) it was 8 to 16 µg/mL. Also, the MIC in assay [7] lay in the range of 1 to 2 µg/mL (≈ 1.89 to 3.77 µM).
Regarding `CCN1CCN(C(=O)NC(C(=O)N[C@H]2Cc3ccc(F)c(C(=O)O)c3OB2O)c2csc(N)n2)C(=O)C1=O` (stereo partly drawn) [Example 109, (3R)-3-(2-(2-aminothiazol-4-yl)-2-(4-ethyl-2,3-dioxopiperazine-1-carboxamido)acetamido)-7-fluoro-2-hydroxy-3,4-dihydro-2H-benzo[e][1,2]oxaborinine-8-carboxylic acid], the MIC in assay [1] (setting [8]) is 8 to 16 µg/mL; in assay [2] (setting [9]), 0.5 to 1 µg/mL; in assay [3], 8 to 16 µg/mL; in assay [4] (setting [10]), 2 to 4 µg/mL; in assay [5] it was 8 to 16 µg/mL; in assay [6] (setting [11]), 8 to 16 µg/mL. Besides, in assay [7], the MIC is 1 to 2 µg/mL (≈ 1.82 to 3.65 µM).
Take `CCN1CCN(C(=O)NC(C(=O)N[C@H]2Cc3cccc(C(=O)O)c3OB2O)c2ccc(B(O)O)cc2)C(=O)C1=O` (some centres unmarked) [Example 112]: the MIC is 32 to 64 µg/mL in assay [1] (AG100, read-out: MIC E. coli AG100); less than 0.25 µg/mL in assay [2] (901C); 2 to 4 µg/mL in assay [3]; 2 to 4 µg/mL in assay [4] (D22, read-out: MIC E. coli D22); greater than 128 µg/mL in assay [5]; 32 to 64 µg/mL in assay [6]. In addition, the MIC in assay [7] lay within 1 to 2 µg/mL (≈ 1.81 to 3.62 µM).
On to `O=C(O)c1cccc2c1OB(O)[C@@H](NC(=O)C(NC(=O)N1CCN(CCF)C(=O)C1=O)c1ccc(B(O)O)cc1)C2` (stereo partly drawn) [Example 113, (3R)-3-(2-(4-boronophenyl)-2-(4-(2-fluoroethyl)-2,3-dioxopiperazine-1-carboxamido)acetamido)-2-hydroxy-3,4-dihydro-2H-benzo[e][1,2]oxaborinine-8-carboxylic acid], for which the MIC is 32 to 64 µg/mL in assay [1] (setting [8]); less than 0.25 µg/mL in assay [2] (setting [9]); 2 to 4 µg/mL in assay [3]; 8 to 16 µg/mL in assay [4] (setting [10]); greater than 128 µg/mL in assay [5]; 32 to 64 µg/mL in assay [6] (setting [11]). Further, the MIC in assay [7] was in the range of 1 to 2 µg/mL (≈ 1.75 to 3.51 µM).
For `CCN1CCN(C(=O)NC(C(=O)N[C@H]2Cc3cccc(C(=O)O)c3OB2O)c2ncc(O)cc2F)C(=O)C1=O` (stereo partly drawn) [Example 135, (3R)-3-(2-(4-ethyl-2,3-dioxopiperazine-1-carboxamido)-2-(3-fluoro-5-hydroxypyridin-2-yl)acetamido)-2-hydroxy-3,4-dihydro-2H-benzo[e][1,2]oxaborinine-8-carboxylic acid], the MIC was 8 to 16 µg/mL in assay [1] (setting [8]); less than 0.25 µg/mL in assay [2] (setting [9]); 2 to 4 µg/mL in assay [3]; 0.5 to 1 µg/mL in assay [4] (setting [10]); 32 to 64 µg/mL in assay [5]; 8 to 16 µg/mL in assay [6] (setting [11]). In assay [7], the MIC was in the range of 1 to 2 µg/mL (≈ 1.84 to 3.68 µM).
